Test results from patent US11453703B2, “Heterotandem bicyclic peptide complexes” (BicycleTX Limited, priority 2018, dated 2022).

How the values were obtained:
CD137 = CD137 (Homo sapiens, UniProt Q07011); experiment: CD137 reporter assay, co-culture with Nectin-4 tumour cells; assay type: cell-based; set-up: host or cells: Jurkat reporter cells;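 further: jurkat reporter cells co-cultured with tumour cells and test article for 6 h, luminescence signal relative to Jurkat plus tumour cells lacking test article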
Sequence of CD137 (Q07011 24-255): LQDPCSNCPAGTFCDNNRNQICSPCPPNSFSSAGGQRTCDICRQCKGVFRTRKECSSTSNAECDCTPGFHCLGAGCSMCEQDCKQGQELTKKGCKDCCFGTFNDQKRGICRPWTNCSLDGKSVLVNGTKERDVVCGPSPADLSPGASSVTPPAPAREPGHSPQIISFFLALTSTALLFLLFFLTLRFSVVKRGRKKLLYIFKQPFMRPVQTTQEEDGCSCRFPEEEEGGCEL
Protocol: Culture medium referred to as R1 media is prepared by adding 1% FBS to RPMI-1640 (component of Promega kit CS196005). Serial dilutions of test articles in R1 are prepared in a sterile 96 well-plate. Use 25 μl per well of test articles or R1 (as a background control) to designated wells in white cell culture plate. Tumour cells* are harvested and resuspended at a concentration of 400,000 cells/mL in R1 media. Twenty five (25) μL/well tumour cells are used in white cell culture plate. Jurkat cells (Promega kit CS196005, 0.5 mL) are thawed in the water bath and then added to 5 ml pre-warmed R1 medium. Twenty five (25) μL/well Jurkat cells are used in white cell culture plate. Incubate the cells and test articles for 6h at 37° C., 5% CO2. At the end of 6 h, add 75 μl/well Bio-Glo™ (Promega) and incubate for 10 min before reading luminescence in a plate reader (Clariostar, BMG). The fold change relative to cells (Jurkat cells+Cell line used in co-culture) is calculated and plotted in GraphPad Prism as log(agonist) vs response to determine EC50 (nM) and Fold Induction over background (Max)

[1] = test system: human PBMC co-cultured with 4T1-D02 (Nectin4+); experiment: Human PBMC-4T1 co-culture (cytokine release) assay; assay type: cell-based; settings: anti-CD3 stimulated PBMC, 48 hours
Method in brief: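 Healthy-donor human PBMCs co-cultured 5:1 with murine Nectin-4-overexpressing 4T1-D02 cells, stimulated with 125 ng/ml soluble anti-CD3 (OKT3) plus test compounds. IL-2 and IFNγ in 48 h supernatants measured by HTRF and interpolated from standard curves; three donors, each in duplicate.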

[2] = Pharmacokinetics of CD137 bispecifics in SD rats; assay type: in vivo; settings: SD Rat, 2 mg/kg IV, plasma
Protocol: Male SD Rats were dosed with 2 mg/kg of each Bicycle multimer formulated in 25 mM Histidine HCl, 10% sucrose pH 7. Serial bleeding (about 80 μL blood/time point) was performed via submadibular or saphenous vein at each time point. All blood samples were immediately transferred into prechilled microcentrifuge tubes containing 2 μL K2-EDTA (0.5M) as anti-coagulant and placed on wet ice. Blood samples were immediately processed for plasma by centrifugation at approximately 4° C., 3000 g. The precipitant including internal standard was immediately added into the plasma, mixed well and centrifuged at 12,000 rpm, 4° C. for 10 minutes. The supernatant was transferred into pre-labeled polypropylene microcentrifuge tubes, and then quick-frozen over dry ice. The samples were stored at […] or below as needed until analysis. 7.5 μL of the supernatant samples were directly injected for LC-MS/MS analysis using an Orbitrap Q Exactive in positive ion mode to determine the concentrations of Bicycle multimer. Plasma concentration versus time data were analyzed by non-compartmental approaches using the Phoenix WinNonlin 6.3 software program. C0, CI, Vdss, T½, AUC(0-last), AUC(0-inf), MRT(0-last), MRT(0-inf) and graphs of plasma concentration versus time profile were reported.

[3] = test system: primary patient derived tumour cells; experiment: Ex vivo culture of primary patient-derived lung tumours; assay type: cell-based, human; settings: patient-derived lung tumour samples
Protocol: Primary patient derived tumour cells from Discovery Life Sciences (DLS) are thawed gently in 10 mL pre-warmed wash medium spiked fresh with Benzonase. The 3D spheroid kit from Greiner (cat #655840) is used to maintain cells in culture for 2 days. Briefly, tumour cells are counted with trypan blue using a haemocytometer. The cells are centrifuged at 1500 rpm for 5 min to wash, and the pellet is resuspended in 100 μL per 1×10^6 cells N3D nanoshuttle. To make them magnetic, cells are spun down at 1500 rpm for 5 min and resuspended; this process is repeated for a total of 4 times. After the final spin, cells are resuspended in the appropriate amount of fresh Lung DTC medium (DLS) to give 50,000-100,000 cells per well in 100 μL/well. Greiner cell-repellent, 96-well plates (cat #655976) are used for this experiment.
If there are cell clumps or debris visible, sample is applied to a 70-100 μm filter before plating. At least 50,000 cells per sample are reserved for a Day 0 flow cytometry panel, these cells are stained, fixed, and stored at 4° C. for later flow analysis. […] Cytokines are quantified using a custom-built cytokine/chemokine panel (IP-10, Granzyme B, IFNγ, IL-2, IL-6, TNFα, IL-8, MIP-1a, MIP-1b, MCP-1, IL-10, MIG) from R&D systems on a Luminex reader. […] Flow data is analysed with Flowjo software.

With CCCC[C@@H]1NC(=O)[C@H](Cc2ccc(O)cc2)NC(=O)[C@@H]2CCCN2C(=O)[C@H](CC(=O)O)NC(=O)[C@H](C)NC(=O)[C@H](Cc2ccccc2)NC(=O)[C@@H]2CSCCC(=O)N3CN(CN(C3)C(=O)CCSC[C@@H](C(=O)N[C@@H](C)C(N)=O)NC1=O)C(=O)CCSC[C@H](NC(C)=O)C(=O)N[C@@H](CC(C)(C)C)C(=O)N1CCC[C@H]1C(=O)N[C@@H](CCC(=O)O)C(=O)N[C@H](CCCCNC(=O)CCc1cn(CCOCCOCCOCCOCCOCCC(=O)N[C@H]3CSCCC(=O)N4CN5CN(C4)C(=O)CCSC[C@H](NC(=O)[C@@H](CC(=O)O)NC(=O)[C@H](Cc4cccc6ccccc46)NC(=O)[C@@H]4CCCN4C3=O)C(=O)N[C@@H](CCSC)C(=O)N[C@@H](CCCCNC(=N)N)C(=O)N[C@@H](CC(=O)O)C(=O)N[C@@H](Cc3c[nH]c4ccccc34)C(=O)N[C@@H](CO)C(=O)N[C@@H]([C@@H](C)O)C(=O)N3CCC[C@H]3C(=O)N3C[C@H](O)C[C@H]3C(=O)N[C@@H](Cc3c[nH]c4ccccc34)C(=O)N[C@H](C(N)=O)CSCCC5=O)nn1)C(=O)N1CCC[C@H]1C(=O)N[C@@H](Cc1ccc(O)cc1)C(=O)N2 [BCY10572] as the molecule, how does the EC50 (CD137) read?
Its EC50 is 0.44 nM.

What about the “Fold Induction over Background” value (CD137; tumour target Nectin4, co-culture with H1376, 6 h) of the same molecule?
The value was 55 fold.

And the EC50 ([1]; IFN-γ secretion)?
The EC50 was 0.25 nM.

And the “max IFN-y” value [1]?
The value was 17915 pg/mL.

What about the T½ [2] of the same molecule?
Its T½ is 55.6 min.

What about the clearance ([2]; male, Sprague-Dawley (SD), read-out: Clp) of the same molecule?
Its clearance is 15.6 mL/min/kg.

What about the Vd ([2]; male, Sprague-Dawley (SD), read-out: Vdss) of the same molecule?
Its Vd is 0.882 L/kg.

And the “change in immune markers (normalized to vehicle)” value ([3]; 48 h (FIG. 8))?
The value was “induced Nectin-4 dependent change in several immune markers”.

And the “change in % CD8+ki67+ T cells” value ([3]; Day 2 flow (FIG. 8))?
The value was “induced Nectin-4 dependent change”.
